One assay relates to collagen I and III. The experiment in a line: Collagen I and collagen III quantification (ELISA) in rabbit ear scar. Type of assay: in vivo, New Zealand white rabbits. The protocol:
The rabbit ear model of hypertrophic scarring was established. In brief, 12 New Zealand white rabbits, weighing 2.5 to 3.0 kg, were prepared for wounding under sterile conditions. Four 1 cm full thickness circular wounds were created down to the cartilage on the ventral side of each ear using a 1 cm punch biopsy. The perichondrial membrane was then dissected off the cartilage using a surgical blade. The test agents including compound B, C and ACM ethanol extract were applied to the wounds of the experimental group ([…] to each wound) every day in concentrations of 1% w/v for 14 days, while the control group received equal amounts of 1% w/v saline.
The quantification of collagen I and III used an ELISA Kit (R & D Systems Inc., Minneapolis, Minn., USA) according to the operation manual.
A general note: An ELISA detects its analyte on a solid surface through an enzyme-linked reagent.

In another assay the test system is HSC. The experiment in a line: HSC apoptosis by cell death detection ELISA. Type of assay: cell-based. The following applies: 24-80 μM; 24 h, 48 h and 72 h. Here is the method:
Apoptosis was detected with a sandwich immunoassay system using a cell death detection ELISA kit (Roche Diagnostic Inc.). Roche's Cell Death Detection ELISA kit qualitatively and quantitatively detects the amount of cleaved DNA/histone complexes (nucleosomes) in a given sample using a sandwich-enzyme-immunoassay-based method. The cells (1×10^4 cells/well) were seeded in 100 μl medium in a 96-well plate (Nunc, Denmark) and cultured for 24 h to allow the cells to attach and then treated with three different concentrations (8 μM, 24 μM and 80 μM) of either Compound A, B, C and D for 24 h, 48 h and 72 h and the plates were incubated in 37° C. After incubation, the 96 well plates were centrifuged for 10 min at 200×g and removed supernatant and discard, then added 200 μl of lysis buffer per well using multipipetman and incubated 30 min at room temperature, microplates were centrifuged the lysate at 200×g for 10 min. After the centrifuge, 20 μl of the supernatant was transferred into the streptavidin-coated microplate, then added 80 μl of immunoreagent to each well. The microplate was covered with an adhesive foil and incubated on a shaker under gentle shaking for 2 hour at room temperature. After the incubation period, microplates were washed three times with 250-300 μl incubation buffer and 100 μl ABTS solution was added and incubated for 30 min or until color is sufficient for photometric. ABTS Stop solution was added and absorbance of the samples was measured using ELISA reader at 405 nm, reference wavelength at 490 nm.

In another assay the target is T1, tyrosinase (Mus musculus, UniProt P11344).
T1 construct: endogenous in cells; host or cells: B16F10 murine melanoma cells (ATCC), total cell lysate
T1 sequence (P11344 19-533): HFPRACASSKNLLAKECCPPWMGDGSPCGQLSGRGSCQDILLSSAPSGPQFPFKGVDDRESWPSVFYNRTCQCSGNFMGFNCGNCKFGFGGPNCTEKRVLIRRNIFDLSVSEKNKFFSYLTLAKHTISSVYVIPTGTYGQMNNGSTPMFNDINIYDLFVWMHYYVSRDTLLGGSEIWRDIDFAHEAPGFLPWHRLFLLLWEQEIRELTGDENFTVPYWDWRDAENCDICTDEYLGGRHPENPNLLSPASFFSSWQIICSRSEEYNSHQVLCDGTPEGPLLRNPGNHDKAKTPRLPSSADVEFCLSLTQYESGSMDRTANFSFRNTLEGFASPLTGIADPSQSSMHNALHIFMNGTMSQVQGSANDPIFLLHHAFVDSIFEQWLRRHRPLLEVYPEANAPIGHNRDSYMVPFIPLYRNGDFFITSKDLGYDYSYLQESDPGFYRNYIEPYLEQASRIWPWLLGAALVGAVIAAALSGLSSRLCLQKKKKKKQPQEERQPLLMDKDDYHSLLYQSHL
The experiment in a line: Cellular tyrosinase activity assay (L-DOPA oxidation) in B16F10 cells exposed to UV. Type of assay: cell-based, murine. The following applies: UV alone 52.55±4.36% increase over non-UV control (3.0±0.5 U/mg protein). The source says:
The dermal fibroblast cell line CG1639 was obtained from the BCRC (Bioresource Collection and Research Center) and cultured in Dulbecco's modified Eagle media (DMEM, Gibco by Invitrogen) with 1% antibiotic antimycotic (Gibco by Invitrogen) and 15% fetal bovine serum (Gibco by Invitrogen). The fetal rat skin keratinocyte, FRSK cell line was obtained from the Japan HSRRB (Health Science Research Resources Bank) and cultured in Eagle's minimal essential media (MEM, Gibco by Invitrogen) supplemented with 10% fetal bovine serum (FBS) (Gibco by Invitrogen) and 1% antibiotic antimycotic (Gibco by Invitrogen). B16F10 cells, a murine melanoma cell line, were purchased from American Type Culture Collection (ATCC, Rockville, Md., USA) and was cultured in Eagle's Minimum Essential Medium (MEM; Sigma, St. Louis, Mo.) supplemented with 10% fetal bovine serum (FBS; HyClone Lab. Inc., Logan, Utah), 0.02% antibiotic-antimycotic liquid (penicillin, 10 000 U mL^−1; streptomycin, 10 000 μg mL^−1 and amphotericin B, 25 μg mL^−1; Invitrogen, Carlsbad, Calif.).
To investigate the induction of melanogenesis and the oxidative stress by direct UV irradiation, melanoma cells and keratocytes were irradiated with 8 J cm^−2 of UVA (FL15BLB, 352 nm, 15 W; Toshiba, Tokyo, Japan) and 10 mJ cm^−2 of UVB (G15T8E, 306 nm, 15 W; Sankyo Denki, Tokyo, Japan) in a HANKS' balanced salt solution (Sigma). The UV intensity was measured by using a Model UVX Digital Radiometer (UVP Inc., Upland, Calif.).
B16F10 and FRSK cells were exposed to Hepasim compounds A-D by two different concentrations (3 or 10 μM) for 72 hrs prior to UVA irradiation. DMEM was replaced with phosphate buffered saline (PBS) to avoid generation of medium-derived toxic photoproducts prior to UV irradiation. Cells were collected 24 hrs after UVA irradiation and assayed. For preparation of cell lysate, the harvested cells were pelleted by centrifugation and lysed in lysis buffer containing 50 mM Tris-HCl, 10 mM ethylene diaminetetraacetic acid (EDTA), 1% (v/v) Tri-ton X-100, phenylmethylsulfonyl fluoride (PMSF) (100 mg/ml) and pepstatin A (1 mg/ml) in DMSO and leupeptin (1 mg/ml) in H2O, pH 6.8. The cells were centrifuged at 10,000 rpm for 10 min and the total cell lysate was collected and stored at −80° C.
The rate of L-DOPA oxidation was measured to assess cellular tyrosinase activity in B16F10 cells exposed to UV. The assay was performed as below described, 20 mM L-DOPA used as the substrates was added to each lysate in a 96-well plate and absorbance of dopachrome formation was measured spectrophotometrically at 475 nm every 10 min for 1 h at 37° C. by a spectrophotometer. The tyrosinase activity was calculated by comparison to a standard curve using tyrosinase (2034 U/mg) and was expressed as unit/mg protein. The data are expressed as a percentage of the tyrosinase activity (unit/mg protein) of non-irradiated and untreated control cells (100%).

Experimental findings from patent publication US9572760B2, “Uses of compounds and mixtures from Antrodia cinnamomea mycelia” (Simpson Biotech Co., Ltd., priority 2013, dated 2017) are described below.

Consider `CC(C)=CCOc1ccc(C2=C(CC(C)C)C(=O)NC2=O)cc1` [Compound B, 3-isobutyl-4-[4-(3-methyl-2-butenyloxy)phenyl]-1H-pyrrol-2,5-dione], for which the “collagen III density” value with collagen I and III (day 7, 1% w/v topical) is given as “insignificantly decreased”; in the assay with collagen I and III (day 14, 1% w/v topical), “significantly reduced”. In addition, the “collagen I density” value with collagen I and III (day 14, 1% w/v topical) was “significantly decreased”. Besides, the “apoptosis of HSC (cell death detection assay)” value in the assay on HSC is listed as “apoptosis of HSC”. Besides, the “tyrosinase activity in UV-irradiated B16F10 cells” value is 51.65±4.6% on tyrosinase (3 μM) and 42.32±6.7% at tyrosinase (10 μM).
For the compound `CC(C)=CCOc1ccc(C2=C(CC(C)C)C(=O)N(O)C2=O)cc1` [Compound C, 3-isobutyl-4-[4-(3-methyl-2-butenyloxy)phenyl]-1H-pyrrol-1-ol-2,5-dione], the “collagen III density” value in the assay on collagen I and III (day 7, 1% w/v topical) is “insignificantly decreased”; in the assay on collagen I and III (day 14, 1% w/v topical), “significantly reduced”. Moreover, the “collagen I density” value with collagen I and III (day 14, 1% w/v topical) is “significantly decreased”. Also, in the assay with HSC, the “apoptosis of HSC (cell death detection assay)” value is on record as “apoptosis of HSC”. Further, the “tyrosinase activity in UV-irradiated B16F10 cells” value on tyrosinase (3 μM) came to 48.55±3.7%; at tyrosinase (10 μM), 40.55±3.9%.
